15 molecules from patent US12252481B2, “Anti-viral compounds” (Aligos Therapeutics, Inc., priority 2021, dated 2025) can be followed below.

The test system of experiment [1] is human beta-coronavirus OC43. Nature of the experiment: OC43 coronavirus antiviral assay in HeLa cells (cytopathic effect, cell-titer-glo). It counts as cell-based. Particulars: Betacoronavirus 1, OC43, HeLa, 144 h, 6 days at 33° C.
The target of the next experiment is T1, HRV3C (Human rhinovirus 14, UniProt P03303).
T1 construct: 3CLpro and HRV3C was added using a Multidrop Combi
Nature of the experiment: biochemical. The arrangement: species or system HRV. The note with it: HRV3C, 30 mins preincubation, SAMDI-MS; read-out: HRV IC50 (bound).

Another experiment deals with T2, SARS-Cov-2 3CLpro (Severe acute respiratory syndrome coronavirus 2, UniProt P0DTD1).
T2 construct: 3CLpro and HRV3C was added using a Multidrop Combi
The experiment in a line: biochemical. The note with it: 3CLpro, 30 mins preincubation, SAMDI-MS.

The test system of experiment [2] is B.1.1.7 lineage SARS-CoV-2. The experiment in a line: microbe, parasite or virus in culture. It counts as cell-based.
The target of another experiment is T3, human cathepsin L (Homo sapiens, UniProt P07711).
T3 construct: purchased R&D Systems
Nature of the experiment: Cathepsin L assay (Z-FR-AMC fluorescence). It counts as biochemical. The note with it: 10 pM human cathepsin L, 30 mins preincubation, Z-FR-AMC 2 μM. How it is done:
For the cathepsin L assay, 10 pM of human cathepsin L (R&D Systems; Minneapolis, MN) was preincubated for 30 mins with test compounds. Reactions were initiated by the addition of a peptide substrate Z—FR-AMC (final concentration 2 μM, Anaspec; Fremont, CA). Fluorescence was measured at 2-minute intervals for 30 mins using a 355/460 excitation/emission filter module on an Envision plate reader (Perkin Elmer; Waltham, MA). The IC50 values were calculated for each assay by fitting the curves using a four-parameter equation in GraphPad Prism.

For experiment [3], the system named is SARS-CoV-2-GHB-03021/2020. It counts as cell-based. Particulars: read-out: VeroE6 + CP (EC50).
Where [4] appears, read: read-out: SARS-Cov-2 IC50 (class).
The mark [5] stands for this setting: Severe acute respiratory syndrome coronavirus 2, 96 h; read-out: A549-dual_ACE2_TMPRSS2 (EC50).
Setting [6] is: Severe acute respiratory syndrome coronavirus 2, 96 h; […]; numeric bounds given instead of class symbols; read-out: A549-dual_ACE2_TMPRSS2 (EC50).

Read-outs that look alike come from different tables or passages of the source.

T3 sequence (P07711 114-333): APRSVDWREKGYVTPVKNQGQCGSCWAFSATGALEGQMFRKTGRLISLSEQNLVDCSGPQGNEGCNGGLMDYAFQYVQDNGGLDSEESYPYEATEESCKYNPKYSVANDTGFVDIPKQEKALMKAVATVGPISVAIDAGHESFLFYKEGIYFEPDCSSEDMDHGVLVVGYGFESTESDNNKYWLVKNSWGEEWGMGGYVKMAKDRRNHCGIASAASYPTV
T1 sequence (P03303 1538-1719): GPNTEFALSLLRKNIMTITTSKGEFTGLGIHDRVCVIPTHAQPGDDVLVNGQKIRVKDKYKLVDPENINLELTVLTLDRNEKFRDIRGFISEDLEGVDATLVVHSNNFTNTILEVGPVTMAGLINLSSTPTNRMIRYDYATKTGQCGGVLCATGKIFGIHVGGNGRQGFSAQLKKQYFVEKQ

The term EC50 denotes the concentration at which the effect is half-maximal. For orientation: IC50 means the concentration needed to halve the response being measured. With `C=CC1([C@H](NC(=O)C(F)(F)F)C(=O)N2C[C@H]3[C@@H]([C@H]2C(=O)N[C@H](C#N)C[C@@H]2CCNC2=O)[C@H]2C=C[C@@H]3C2)CCC1` [Compound 68, (1S,3aR,4S,7R,7aS)-N-((S)-1-cyano-2-((S)-2-oxopyrrolidin-3-yl)ethyl)-2-((S)-2-(2,2,2-trifluoroacetamido)-2-(1-vinylcyclobutyl)acetyl)-2,3,3a,4,7,7a-hexahydro-1H-4,7-methanoisoindole-1-carboxamide], the EC50 in experiment [1] (read-out: EC50 (class)) and in experiment [2] (setting [5]) was < 100 nM throughout. In addition, the IC50 on HRV3C was > 10000 nM; at SARS-Cov-2 3CLpro (setting [4]) it was < 20 nM; on human cathepsin L it was ≥ 10000 nM.

In the case of `CC(C)(C)[C@H](NC(=O)C(F)(F)F)C(=O)N1C[C@H]2[C@H]3CC[C@H](CC3)[C@H]2[C@@H]1C(=O)N[C@H](C#N)C[C@@H]1CCNC1=O` [Compound 71a], the EC50 in experiment [1] (read-out: EC50 (bound)) and in experiment [2] (setting [6]) was > 10000 nM in each case. In addition, the figures for the IC50 at HRV3C, at SARS-Cov-2 3CLpro (setting [4]) and on human cathepsin L were > 10000 nM, 2000 to 20000 nM and ≥ 10000 nM, respectively.

As to `CC(C)(C)[C@H](NC(=O)C(F)(F)F)C(=O)N1C[C@H]2[C@@H]([C@H]1C(=O)N[C@H](C#N)C[C@@H]1CCNC1=O)[C@H]1C=C[C@@H]2C1(F)F` [Example 82, (1S,3aS,4S,7R,7aR)—N-((S)-1-cyano-2-((S)-2-oxopyrrolidin-3-yl)ethyl)-2-((S)-3,3-dimethyl-2-(2,2,2-trifluoroacetamido)butanoyl)-8,8-difluoro-2,3,3a,4,7,7a-hexahydro-1H-4,7-methanoisoindole-1-carboxamide], the EC50 in experiment [1] (read-out: EC50 (class)) and in experiment [2] (setting [5]) was < 100 nM throughout. For the same molecule, the IC50 on HRV3C is > 10000 nM; at SARS-Cov-2 3CLpro (setting [4]), < 20 nM; on human cathepsin L, ≥ 10000 nM.

As for `C[C@@H](OCC1CC1)[C@H](NC(=O)C(F)(F)F)C(=O)N1C[C@H]2[C@@H]([C@H]1C(=O)N[C@H](C#N)C[C@@H]1CCNC1=O)[C@H]1C=C[C@@H]2C1` [Example 99], the EC50 in experiment [1] (read-out: EC50 (class)) and in experiment [2] (setting [5]) was < 100 nM throughout. Besides, the figures for the concentration for half-maximal inhibition (IC50) at HRV3C, on SARS-Cov-2 3CLpro (setting [4]) and at human cathepsin L were > 500 nM, < 20 nM and ≥ 10000 nM, respectively.

Turning to `CC(C)(C)[C@H](NC(=O)C(F)(F)F)C(=O)N1C[C@H]2[C@@H]([C@H]1C(=O)N[C@H](C#N)C[C@@H]1CCNC1=O)[C@H]1C=C[C@@H]2C1F` (stereo in doubt) [Example 91, (1S,3aS,4S,7R,7aR,8S)—N-((S)-1-cyano-2-((S)-2-oxopyrrolidin-3-yl)ethyl)-2-((S)-3,3-dimethyl-2-(2,2,2-trifluoroacetamido)butanoyl)-8-fluoro-2,3,3a,4,7,7a-hexahydro-1H-4,7-methanoisoindole-1-carboxamide], the 50% effective concentration (EC50) in experiment [1] (read-out: EC50 (class)) and in experiment [2] (setting [5]) was < 100 nM in each case. Moreover, the IC50 at HRV3C is > 500 nM; on SARS-Cov-2 3CLpro (setting [4]) it was < 20 nM; at human cathepsin L, ≥ 10000 nM.

For the molecule `CC(C)(C)[C@H](NC(=O)CC(F)(F)F)C(=O)N1C[C@H]2[C@@H]([C@H]1C(=O)N[C@H](C#N)C[C@@H]1OCCNC1=O)[C@H]1C=C[C@@H]2C1` [Compound 132], the EC50 in experiment [1] (read-out: EC50 (class)) and in experiment [2] (setting [5]) was < 100 nM throughout. Moreover, the results for the half-maximal inhibitory concentration (IC50) at HRV3C, at SARS-Cov-2 3CLpro (setting [4]) and on human cathepsin L were > 500 nM, < 20 nM and ≥ 10000 nM, respectively.

As for `CC(F)(F)[C@H](NC(=O)C(F)(F)F)C(=O)N1C[C@H]2[C@@H]([C@H]1C(=O)N[C@H](C#N)C[C@@H]1CCNC1=O)[C@H]1C=C[C@@H]2C1` [Compound 133], the EC50 was < 100 nM in experiment [1] (read-out: EC50 (class)) and 100 to 1000 nM in experiment [2] (setting [5]). The values for the IC50 at HRV3C, at SARS-Cov-2 3CLpro (setting [4]) and at human cathepsin L were > 500 nM, < 20 nM and ≥ 10000 nM, respectively.

`CC(C)(C)[C@H](NC(=O)C(F)(F)F)C(=O)N1C[C@@H]2[C@@H]([C@@H]3CC[C@H]2O3)[C@@H]1C(=O)N[C@H](C#N)C[C@@H]1CCNC1=O` (relative stereo) [Compound 58a]: the EC50 in experiment [1] (read-out: EC50 (bound)) and in experiment [2] (setting [6]) was > 10000 nM throughout. The IC50 on HRV3C was > 10000 nM; at SARS-Cov-2 3CLpro (read-out: SARS-Cov-2 IC50 (bound)), > 10000 nM; against human cathepsin L, ≥ 10000 nM.

As for `COCC(C)(C)[C@H](NC(=O)C(F)(F)C(F)(F)F)C(=O)N1C[C@H]2[C@@H]([C@H]1C(=O)N[C@H](C#N)C[C@@H]1CCNC1=O)[C@H]1C=C[C@@H]2C1` [Compound 100, (1S,3aR,4S,7R,7aS)-N-((S)-1-cyano-2-((S)-2-oxopyrrolidin-3-yl)ethyl)-2-((S)-4-methoxy-3,3-dimethyl-2-(2,2,3,3,3-pentafluoropropanamido)butanoyl)-2,3,3a,4,7,7a-hexahydro-1H-4,7-methanoisoindole-1-carboxamide], the EC50 in experiment [1] (read-out: EC50 (class)) and in experiment [2] (setting [5]) was < 100 nM in each case. Besides, the IC50 on HRV3C is > 500 nM; at SARS-Cov-2 3CLpro (setting [4]), < 20 nM; on human cathepsin L, ≥ 10000 nM.

As to `CC(C)(C)[C@H](NC(=O)C12CC(C1)C2)C(=O)N1C[C@H]2[C@@H]([C@H]1C(=O)N[C@H](C#N)C[C@@H]1CCNC1=O)[C@H]1C=C[C@@H]2C1` [Compound 66, (1S,3aR,4S,7R,7aS)-2-((S)-2-(bicyclo[1.1.1]pentane-1-carboxamido)-3,3-dimethylbutanoyl)-N-((S)-1-cyano-2-((S)-2-oxopyrrolidin-3-yl)ethyl)-2,3,3a,4,7,7a-hexahydro-1H-4,7-methanoisoindole-1-carboxamide], the EC50 in experiment [1] (read-out: EC50 (class)) and in experiment [2] (setting [5]) was 100 to 1000 nM each time. In addition, the IC50 at HRV3C is > 10000 nM; on SARS-Cov-2 3CLpro (setting [4]) it was < 20 nM; at human cathepsin L, ≥ 10000 nM.

`CC(C)(C)[C@H](NC(=O)C(F)(F)F)C(=O)N1C[C@H]2[C@@H]([C@H]1C(=O)N[C@H](C#N)C[C@@H]1OCCNC1=O)[C@H]1C=C[C@@H]2C1` [Compound 114, (1S,3aR,4S,7R,7aS)-N-((S)-1-cyano-2-((S)-3-oxomorpholin-2-yl)ethyl)-2-((S)-3,3-dimethyl-2-(2,2,2-trifluoroacetamido)butanoyl)-2,3,3a,4,7,7a-hexahydro-1H-4,7-methanoisoindole-1-carboxamide]: the half-maximal effective concentration (EC50) in experiment [1] (read-out: EC50 (class)) and in experiment [2] (setting [5]) was < 100 nM throughout. In addition, the IC50 on HRV3C was > 500 nM; on SARS-Cov-2 3CLpro (setting [4]), < 20 nM; on human cathepsin L, ≥ 10000 nM.

As for `CC(C)(C)[C@H](NC(=O)C(F)(F)C(F)(F)F)C(=O)N1C[C@H]2[C@@H]([C@H]1C(=O)N[C@H](C#N)C[C@@H]1CCNC1=O)[C@H]1C=C[C@@H]2C1` [Compound 76, (1S,3aR,4S,7R,7aS)-N-((S)-1-cyano-2-((S)-2-oxopyrrolidin-3-yl)ethyl)-2-((S)-3,3-dimethyl-2-(2,2,3,3,3-pentafluoropropanamido)butanoyl)-2,3,3a,4,7,7a-hexahydro-1H-4,7-methanoisoindole-1-carboxamide], the EC50 in experiment [1] (read-out: EC50 (class)) and in experiment [2] (setting [5]) was < 100 nM each time. Further, the IC50 was > 10000 nM on HRV3C, < 20 nM at SARS-Cov-2 3CLpro (setting [4]) and ≥ 10000 nM against human cathepsin L.

In the case of `CC(C)(C)[C@H](NC(=O)C(F)(F)F)C(=O)N1C[C@H]2[C@@H]([C@H]1C(=O)N[C@H](C#N)C[C@@H]1Oc3ccccc3NC1=O)[C@H]1C=C[C@@H]2C1` [Compound 52, (1S,3aR,4S,7R,7aS)-N-((S)-1-cyano-2-((S)-3-oxo-3,4-dihydro-2H-benzo[b][1,4]oxazin-2-yl)ethyl)-2-((S)-3,3-dimethyl-2-(2,2,2-trifluoroacetamido)butanoyl)-2,3,3a,4,7,7a-hexahydro-1H-4,7-methanoisoindole-1-carboxamide], the EC50 in experiment [1] (read-out: EC50 (class)) and in experiment [2] (setting [5]) was 100 to 1000 nM each time. Further, the IC50 at HRV3C is > 10000 nM; on SARS-Cov-2 3CLpro (setting [4]), < 20 nM; on human cathepsin L, ≥ 10000 nM.

Take `CC(C)(C)[C@H](NC(=O)C(F)(F)F)C(=O)N1C[C@@H]2[C@H]3CC[C@H](CC3)[C@@H]2[C@H]1C(=O)N[C@H](C#N)C[C@@H]1CCNC1=O` (mixture of isomers) [Compound 71]: the EC50 in experiment [1] (read-out: EC50 (class)) was 100 to 1000 nM; in experiment [2] (setting [5]), < 100 nM. Also, the figures for the IC50 at HRV3C, on SARS-Cov-2 3CLpro (setting [4]) and against human cathepsin L were > 10000 nM, < 20 nM and ≥ 10000 nM, respectively.

Turning to `N#C[C@H](C[C@@H]1CCNC1=O)NC(=O)[C@@H]1[C@@H]2[C@H](CN1C(=O)[C@@H]1C[C@]13CCc1ccccc13)[C@@H]1C=C[C@H]2C1` (single isomer, unassigned) [Example 38, (1S,3aR,4S,7R,7aS)-N-((S)-1-cyano-2-((S)-2-oxopyrrolidin-3-yl)ethyl)-2-((1R*,2R*)-2′,3′-dihydrospiro[cyclopropane-1,1′-indene]-2-carbonyl)-2,3,3a,4,7,7a-hexahydro-1H-4,7-methanoisoindole-1-carboxamide], the EC50 in experiment [1] (read-out: EC50 (class)) was in the range of 1000 to 10000 nM; in experiment [2] (Severe acute respiratory syndrome coronavirus 2, 96 h, read-out: A549-dual_ACE2_TMPRSS2 (EC50)) it was 1000 to 10000 nM; in experiment [3], 100 to 1000 nM. Moreover, on human cathepsin L, the 50% inhibitory concentration (IC50) is ≥ 10000 nM.
